What was measured:
JAK2 = JAK2 (Homo sapiens, UniProt O60674); test: Binding to the activation loop of JAK2
[1] = test system: SOCS1+/+ or SOCS1+/− CD4+CD25− T cells; test: CD4+ T cell activation (CD25 expressing cells, flow cytometry) after αCD3 stimulation; type: cell-based, mouse; conditions: αCD3 + SOCS1-KIR peptide (20 μM), 72 h
Protocol: FIGS. 5A-5D. […] (FIGS. 5A and 5B) SOCS1^+/+ or SOCS1^+/− CD4^+CD25^− T cells were stimulated with αCD3 antibodies alone or with αCD3+SOCS1-KIR peptide (20 μM) for 72 h. (FIG. 5A) CD25 expressing cells were assessed by flow cytometry. Results are representative of 4 independent experiments. (FIG. 5B) Proliferation was assessed by CFSE labeling and flow cytometry, cell counts, and ^3[H] thymidine incorporation. n=4. (FIGS. 5C and 5D) SOCS1^+/+ or SOCS1^+/− CD4^+CD25^− T cells were placed under Th17 inducing conditions in the absence or presence of SOCS1-KIR peptide (20 μM) (FIG. 5C) IFNγ expression, relative to β-actin., was assessed by qPCR (left) and ELISA (right) (n=4). (FIG. 5D) pSTAT1 and STAT1 protein expressions were assessed by western blotting. […]
CD4^+ T cell proliferation was assessed by CFSE staining, ^3H thymidine incorporation, and absolute cell counts. […] After 72 h of incubation, cell cultures were either pulsed with 0.5 mCi ^3H thymidine (GE Healthcare; Arlington Heights, Ill.) or counted and harvested for assessment by flow cytometry. In cultures analyzed by flow cytometry, T lymphocytes were labeled with 10 μg/ml CFSE prior to culture as previously described (Cozzo et al. 2003). ^3H thymidine pulsed T lymphocytes were harvested 16-18 hours after initial pulse followed by the ^3H thymidine incorporation assessment using a Beckman LS3801 Liquid Scintillation System. […]

EAE = conditions: administered in vivo; cited from earlier work
SOCS1−/− mice = test: Lethal perinatal auto-inflammatory disease in SOCS1−/− mice; type: in vivo, mouse; conditions: peptide combined with CD4 T cells
Description: FIGS. 15A-15F. SOCS1-KIR inhibition of lethal inflammatory pathology in SOCS1−/− mice is correlated to enhanced regulatory T cell homeostasis. (FIG. 15A) Kaplan Meier curve showing survival of SOCS1^−/− (black square; n=7) or CD4^+/SOCS1-KIR treatment (purple triangles, n=12). Numbers of mice in each group are indicated in parentheses. Mice were euthanized when moribund with survival comparisons by Mantel-Cox. Statistical significance denoted by asterisks. (FIG. 15B) Photographs of H & E stains depicting heart and liver tissues of 2 week old SOCS1^−/−, SOCS1^−/− mice receiving dual treatments, or littermate control mice. Photographs shown of H & E stained liver and heart of untreated SOCS1^−/− (N=8) and WT (N=7) mice are representative of 100% of samples analyzed. Photographs shown of H & E stained liver and heart of SOCS1^−/− mice receiving combined treatments are representative of 2 out of 5 mice in regard to heart samples and 1 out of 5 mice in regards to liver tissue. (FIG. 15C) Graph showing average daily weights of SOCS1^−/− mice untreated (n=16), CD4^+/SOCS1-KIR treatment (n=12), or WT littermate controls (n=9) over a two week period. (FIG. 15D) Photographs of 2 week old SOCS1^−/− mice, SOCS1^−/− mice receiving dual treatment, and WT littermate controls. (FIG. 15E) Graphs showing IFNg levels within the sera of 2 week old WT (n=7) or SOCS1^−/− mice with (n=8) and without (n=10) CD4^+/SOCS1-KIR treatment, measured by ELISA. (FIG. 15F) Graphs showing absolute numbers of CD4^+Foxp3^+ lymphocytes present in two week old SOCS1^−/− and WT littermate control mice with or without CD4^+/SOCS1-KIR treatment and WT 6-8 week old adult mice. Each dot is representative of an individual mouse with averages denoted by lines. Statistics were performed using unpaired, two-tailed t test comparing treated SOCS1^−/− to untreated SOCS1^−/− 2 wk. Statistical significance is denoted by asterisks. *, p≤0.05; **, p 0≤0.005; ***, p≤0.0005.

[2] = test system: SOCS1+/+ or SOCS1+/− CD4+CD25− T cells; test: CD4+ T cell proliferation (CFSE labeling, cell counts, 3H thymidine incorporation); type: cell-based, mouse; conditions: αCD3 + SOCS1-KIR peptide (20 μM), 72 h
Protocol: FIGS. 5A-5D. […] (FIGS. 5A and 5B) SOCS1^+/+ or SOCS1^+/− CD4^+CD25^− T cells were stimulated with αCD3 antibodies alone or with αCD3+SOCS1-KIR peptide (20 μM) for 72 h. (FIG. 5A) CD25 expressing cells were assessed by flow cytometry. Results are representative of 4 independent experiments. (FIG. 5B) Proliferation was assessed by CFSE labeling and flow cytometry, cell counts, and ^3[H] thymidine incorporation. n=4. (FIGS. 5C and 5D) SOCS1^+/+ or SOCS1^+/− CD4^+CD25^− T cells were placed under Th17 inducing conditions in the absence or presence of SOCS1-KIR peptide (20 μM) (FIG. 5C) IFNγ expression, relative to β-actin., was assessed by qPCR (left) and ELISA (right) (n=4). (FIG. 5D) pSTAT1 and STAT1 protein expressions were assessed by western blotting. Results are representative of 4 independent experiments. Statistical comparisons were performed using Mann-Whitney U test. (*P<0.05). iTh17=Th17 inducing conditions, WT=SOCS1^+/+, and HT=SOCS1^+/−.
CD4^+ T cell proliferation was assessed by CFSE staining, ^3H thymidine incorporation, and absolute cell counts. MACS purified CD4^+CD25^− T cells, isolated from LN and spleen suspension, were stimulated in triplicate (96 well round-bottom plate; 1×10^5 cells/well) with 10 μg/ml anti-CD3 (BD Pharmingen; clone: 145.2C11) alone or in addition to 1.5 μg/ml anti-CD28 (BD Pharmingen; clone 37.51) at 37° C. (5% CO2) in RPMI 1640 (Cellgro; 10-040-CV) containing 10% FBS (INVITROGEN™ GIBCO®), 1% antibiotic/antimycotic (Herndon, Va.), and 50 μM β-ME (MP Biomedicals, Solon, Ohio). After 72 h of incubation, cell cultures were either pulsed with 0.5 mCi ^3H thymidine (GE Healthcare; Arlington Heights, Ill.) or counted and harvested for assessment by flow cytometry. In cultures analyzed by flow cytometry, T lymphocytes were labeled with 10 μg/ml CFSE prior to culture as previously described (Cozzo et al. 2003). ^3H thymidine pulsed T lymphocytes were harvested 16-18 hours after initial pulse followed by the ^3H thymidine incorporation assessment using a Beckman LS3801 Liquid Scintillation System. […]

Sequence of JAK2 (O60674 whole entry, species assumed): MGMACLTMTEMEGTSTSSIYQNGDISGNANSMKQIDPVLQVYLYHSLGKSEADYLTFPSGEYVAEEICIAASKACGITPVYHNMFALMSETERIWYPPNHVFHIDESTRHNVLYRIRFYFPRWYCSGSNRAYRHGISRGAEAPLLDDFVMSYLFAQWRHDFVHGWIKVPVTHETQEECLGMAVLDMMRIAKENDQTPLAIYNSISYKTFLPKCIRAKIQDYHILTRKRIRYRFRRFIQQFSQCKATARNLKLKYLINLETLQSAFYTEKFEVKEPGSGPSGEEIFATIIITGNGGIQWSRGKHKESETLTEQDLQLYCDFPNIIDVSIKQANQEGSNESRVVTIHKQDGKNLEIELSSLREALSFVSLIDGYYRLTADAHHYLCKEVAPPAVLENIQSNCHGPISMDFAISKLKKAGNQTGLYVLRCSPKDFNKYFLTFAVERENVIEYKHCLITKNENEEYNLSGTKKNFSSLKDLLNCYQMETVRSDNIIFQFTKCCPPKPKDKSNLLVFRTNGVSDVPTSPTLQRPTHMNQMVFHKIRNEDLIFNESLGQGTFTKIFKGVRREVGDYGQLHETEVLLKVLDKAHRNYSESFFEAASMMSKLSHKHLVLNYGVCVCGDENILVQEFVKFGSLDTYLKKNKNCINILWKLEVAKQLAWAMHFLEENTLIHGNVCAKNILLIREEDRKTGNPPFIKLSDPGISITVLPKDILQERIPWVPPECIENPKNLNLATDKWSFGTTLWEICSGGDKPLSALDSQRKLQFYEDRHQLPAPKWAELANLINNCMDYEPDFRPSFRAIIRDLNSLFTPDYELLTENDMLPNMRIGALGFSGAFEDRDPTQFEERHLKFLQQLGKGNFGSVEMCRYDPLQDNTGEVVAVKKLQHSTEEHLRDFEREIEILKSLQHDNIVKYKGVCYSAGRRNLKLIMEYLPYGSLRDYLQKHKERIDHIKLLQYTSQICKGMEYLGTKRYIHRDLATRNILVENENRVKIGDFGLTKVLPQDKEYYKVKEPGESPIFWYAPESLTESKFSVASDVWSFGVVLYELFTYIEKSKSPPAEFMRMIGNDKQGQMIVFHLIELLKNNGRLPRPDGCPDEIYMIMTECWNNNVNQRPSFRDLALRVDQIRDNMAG

DTHFRTFRSHSDYRRI (SOCS1-KIR peptide) [SOCS1 mimetic peptide corresponding to the KIR region of SOCS1]
Binding to and inhibition of JAK2 (JAK2): binds to and inhibits the function of JAK2 | αCD3 mediated CD25 up-regulation ([1]; SOCS1+/− CD4+ T lymphocytes): sufficient to inhibit excessive αCD3 mediated CD25 up-regulation | CD25 expression ([1]; WT (SOCS1+/+) CD4+ T lymphocytes): limited effects on CD25 expression | Immune homeostasis and EAE prevention (EAE): could both regulate immune homeostasis and prevent EAE | Peripheral Foxp3+CD4+ Tregs (SOCS1−/− mice; 2 week old SOCS1−/− mice): enhanced peripheral homeostasis of Foxp3+CD4+ Tregs | Leukocytic infiltration into heart and liver (SOCS1−/− mice; SOCS1−/− mice): prevent/delay leukocytic infiltration into heart and liver | Quality of life (size and overall health) (SOCS1−/− mice; SOCS1−/− mice): improve the quality of life (size and overall health improvement) | Survival (SOCS1−/− mice; SOCS1−/− mice): could extend the life | Activation and proliferation of αCD3 treated SOCS1+/− CD4+ T lymphocytes relative to WT ([2]; SOCS1+/− cells): to levels comparable to WT receiving αCD3 stimulation | Proliferation by CFSE labeling ([2]; WT and SOCS1+/− T lymphocytes): reduced proliferation | Absolute cell counts and 3H thymidine incorporation [2]: inhibition of T lymphocyte proliferation

— patent publication US11603387B2, “SOCS mimetics for the treatment of diseases” (UNIVERSITY OF FLORIDA RESEARCH FOUNDATION, INC., priority 2014, dated 2023)
